Results on 21 compounds are retold here after PubChem BioAssay AID330 (DTP/NCI, 2004).

The test concerns P388 leukemia ip, CD2F1 mice, survival T/C. In words: NCI In Vivo Anticancer Drug Screen. Data for tumor model P388 Leukemia (intraperitoneal) in CD2F1 (CDF1) mice. The following applies: endpoint: median survival time, higher = longer survival. An outline of the steps: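 Mice carrying the transplanted tumor received test compound or vehicle. Survival was recorded in each group, and the value is the treated-group measurement divided by that of the vehicle-treated control group.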

Where [1] appears, read: dose: 12.5 mg/kg/injection, schedule: Q01DX009 (ip), vehicle: Klucel (hydroxypropylcellulose) (HPC).
Where [2] appears, read: dose: 25.0 mg/kg/injection, schedule: Q01DX009 (ip), vehicle: Klucel (hydroxypropylcellulose) (HPC).
Where [3] appears, read: dose: 50.0 mg/kg/injection, schedule: Q01DX009 (ip), vehicle: Klucel (hydroxypropylcellulose) (HPC).
Setting [4] is: dose: 100.0 mg/kg/injection, schedule: Q01DX009 (ip), vehicle: Klucel (hydroxypropylcellulose) (HPC).
The mark [5] stands for this setting: dose: 200.0 mg/kg/injection, schedule: Q01DX009 (ip), vehicle: Klucel (hydroxypropylcellulose) (HPC).
Where [6] appears, read: dose: 25.0 mg/kg/injection, schedule: Q01DX009 (ip), vehicle: saline.
Setting [7] is: dose: 50.0 mg/kg/injection, schedule: Q01DX009 (ip), vehicle: saline.
The mark [8] stands for this setting: dose: 60.0 mg/kg/injection, schedule: Q01DX005 (ip), vehicle: saline with Tween-80.
Setting [9] is: dose: 120.0 mg/kg/injection, schedule: Q01DX005 (ip), vehicle: saline with Tween-80.
Setting [10] is: dose: 240.0 mg/kg/injection, schedule: Q01DX005 (ip), vehicle: saline with Tween-80.
[11] abbreviates: dose: 50.0 mg/kg/injection, schedule: Q01DX005 (ip), vehicle: Klucel (hydroxypropylcellulose) (HPC).
The mark [12] stands for this setting: dose: 100.0 mg/kg/injection, schedule: Q01DX005 (ip), vehicle: Klucel (hydroxypropylcellulose) (HPC).
The mark [13] stands for this setting: dose: 200.0 mg/kg/injection, schedule: Q01DX005 (ip), vehicle: Klucel (hydroxypropylcellulose) (HPC).
[14] abbreviates: dose: 50.0 mg/kg/injection, schedule: Q01DX009 (ip), vehicle: saline with Tween-80.
Setting [15] is: dose: 100.0 mg/kg/injection, schedule: Q01DX009 (ip), vehicle: saline with Tween-80.
Setting [16] is: dose: 200.0 mg/kg/injection, schedule: Q01DX009 (ip), vehicle: saline with Tween-80.

“And” between values parts separate entries of the source, which are not always exact repeats. Equal values may be shown once. Toxic doses and inconclusive results are not listed.

Turning to `COC1NC(=O)Oc2c(F)cccc21` (stereo unspecified), the T/C is 100 % of control under setting [1]; 95 % of control under setting [2]; 99 % of control under setting [3]; 95 % of control under setting [4]; 104 % of control under setting [5].
On to `O=C(/C(=C\c1ccc(F)cc1)S(=O)(=O)c1ccc(Br)cc1)c1ccccc1`, for which the T/C is 100 % of control (dose: 50.0 mg/kg/injection, schedule: Q01DX005 (ip), vehicle: saline with Tween-80); 97 % of control (dose: 100.0 mg/kg/injection, schedule: Q01DX005 (ip), vehicle: saline with Tween-80); 95 % of control (dose: 200.0 mg/kg/injection, schedule: Q01DX005 (ip), vehicle: saline with Tween-80).
As for `CC([NH-])CC(C)[NH-].O=[N+]([O-])O.O=[N+]([O-])O.[Pt+2]` (stereo unspecified), the T/C (dose: 25.0 mg/kg/injection, schedule: Q04DX002 (ip), vehicle: saline) is 159 % of control.
Regarding `C[N+]1(N)CCOCC1`, the T/C is 97 % of control (dose: 12.5 mg/kg/injection, schedule: Q01DX009 (ip), vehicle: saline); 100 % of control under setting [6]; 92 % of control under setting [7].
Consider `COC(=O)CC1CSCC1=O` (stereo unspecified), for which the T/C is 105 % of control under setting [8], 100 % of control under setting [9] and 105 % of control under setting [10].
On to `CN(C)[C@@H]1C(=O)C(C(=O)NCN(CCCl)CCCl)=C(O)[C@@]2(O)C(=O)C3=C(O)c4c(O)cccc4[C@@](C)(O)[C@H]3C[C@@H]12`, for which the T/C by setting is: (dose: 33.0 mg/kg/injection, schedule: Q04DX003 (ip), vehicle: saline with Tween-80) 159 % of control; (dose: 44.0 mg/kg/injection, schedule: Q04DX003 (ip), vehicle: saline) 154 % of control; (dose: 50.0 mg/kg/injection, schedule: Q04DX003 (ip), vehicle: saline with Tween-80) 158 % of control and 172 % of control; (dose: 66.0 mg/kg/injection, schedule: Q04DX003 (ip), vehicle: saline) 181 % of control; (dose: 75.0 mg/kg/injection, schedule: Q04DX003 (ip), vehicle: saline with Tween-80) 168 % of control; (dose: 100.0 mg/kg/injection, schedule: Q04DX003 (ip), vehicle: saline with Tween-80) 100 % of control. For the same compound, the T/C (dose: 100.0 mg/kg/injection, schedule: Q04DX003 (ip), vehicle: saline) is 209 % of control.
With `COc1ccc(C2c3cc(OC)c(OC)cc3CC3C(=O)OCC32)cc1OC` (stereo unspecified), the T/C is 94 % of control and 107 % of control under setting [11]; 100 % of control and 97 % of control under setting [12]; 112 % of control and 103 % of control under setting [13].
Consider `COc1ccc(CCNC(=O)Cc2ccc3cc(OC)c(OC)cc3c2)cc1OC`, for which the T/C runs as follows: under setting [14], 120 % of control; under setting [15], 100 % of control; under setting [16], 90 % of control.
Regarding `O=P(CCP(=O)(c1ccccc1)c1ccccc1)(c1ccccc1)c1ccccc1.[Cl][Sn]([Cl])([c]1ccccc1)[c]1ccccc1`, the T/C is, setting by setting: (dose: 0.79 mg/kg/injection, schedule: Q01DX005 (ip), vehicle: Klucel (hydroxypropylcellulose) (HPC)) 116 % of control and 117 % of control; (dose: 1.56 mg/kg/injection, schedule: Q01DX005 (ip), vehicle: Klucel (hydroxypropylcellulose) (HPC)) 114 % of control and 119 % of control; (dose: 3.12 mg/kg/injection, schedule: Q01DX005 (ip), vehicle: Klucel (hydroxypropylcellulose) (HPC)) 111 % of control and 119 % of control; (dose: 6.25 mg/kg/injection, schedule: Q01DX005 (ip), vehicle: Klucel (hydroxypropylcellulose) (HPC)) 113 % of control.
Take `CCN(CC)CCSc1nnc(-c2cc(OC)c(OC)c(OC)c2)o1`: the T/C is, setting by setting: (dose: 50.0 mg/kg/injection, schedule: Q04DX003 (ip), vehicle: water) 100 % of control; (dose: 100.0 mg/kg/injection, schedule: Q04DX003 (ip), vehicle: water) 103 % of control.
With `NC(CSC(c1ccccc1)(c1ccccc1)c1ccc(CBr)cc1)C(=O)O` (stereo unspecified), the T/C is, setting by setting: under setting [1], 86 % of control; (dose: 12.5 mg/kg/injection, schedule: Q01DX009 (ip), vehicle: other) 120 % of control; under setting [2], 90 % of control; under setting [3], 95 % of control; under setting [4], 88 % of control; (dose: 100.0 mg/kg/injection, schedule: Q01DX009 (ip), vehicle: other) 151 % of control and 159 % of control. In addition, the T/C runs as follows: under setting [5], 90 % of control; (dose: 200.0 mg/kg/injection, schedule: Q01DX009 (ip), vehicle: other) 162 % of control and 178 % of control; (dose: 400.0 mg/kg/injection, schedule: Q01DX009 (ip), vehicle: Klucel (hydroxypropylcellulose) (HPC)) 94 % of control; (dose: 400.0 mg/kg/injection, schedule: Q01DX009 (ip), vehicle: other) 182 % of control.
`O=P(O)(O)SP(=O)(O)O.[Ni]`: the T/C (dose: 12.5 mg/kg/injection, schedule: Q01DX001 (ip), vehicle: suspension in saline) is 102 % of control and 94 % of control; the T/C (dose: 25.0 mg/kg/injection, schedule: Q01DX001 (ip), vehicle: suspension in saline) is 99 % of control and 94 % of control; the T/C (dose: 50.0 mg/kg/injection, schedule: Q01DX001 (ip), vehicle: suspension in saline) is 122 % of control.
Take `Cc1c(C)c2c(=O)c3ccccc3[nH]c2c2ccccc12`: the T/C was 108 % of control under setting [11], 98 % of control under setting [12] and 109 % of control under setting [13].
For the compound `O=C(Nc1ccc(Cl)cc1)O/N=C/c1ccc2c(c1)OCO2`, the T/C is, setting by setting: under setting [14], 93 % of control; under setting [15], 91 % of control; under setting [16], 86 % of control.
Turning to `ClCSc1ccccc1C1=NCCCN1`, the T/C (dose: 0.78 mg/kg/injection, schedule: Q01DX005 (ip), vehicle: saline) is 107 % of control; the T/C (dose: 1.56 mg/kg/injection, schedule: Q01DX005 (ip), vehicle: saline) was 107 % of control; the T/C (dose: 3.12 mg/kg/injection, schedule: Q01DX005 (ip), vehicle: saline) was 102 % of control.
For `O=c1[nH]c(CN2CCCCC2)ccc1O`, the T/C under setting [6] was 105 % of control and 109 % of control; the T/C under setting [7] is 99 % of control and 105 % of control; the T/C (dose: 100.0 mg/kg/injection, schedule: Q01DX009 (ip), vehicle: saline) was 106 % of control and 109 % of control; the T/C (dose: 200.0 mg/kg/injection, schedule: Q01DX009 (ip), vehicle: saline) is 117 % of control and 118 % of control.
Consider `CC(C)(C)N=C(CCN1CCN(CCC(=NC(C)(C)C)Nc2c(Cl)cccc2Cl)CC1)Nc1c(Cl)cccc1Cl`, for which the T/C was 96 % of control under setting [3], 95 % of control under setting [4] and 92 % of control under setting [5].
For the compound `CCCC(=O)C(CC)C(=O)CCC(=O)Nc1cccc([N+](=O)[O-])c1` (stereo unspecified), the T/C by setting is: under setting [8], 101 % of control; under setting [9], 104 % of control; under setting [10], 109 % of control.
As for `C=C(Br)c1ccc2c(c1)OCO2`, the T/C by setting is: under setting [8], 106 % of control; under setting [9], 102 % of control; under setting [10], 102 % of control.
Consider `O=C(CCCc1ccc(N(CCCl)CCCl)cc1)Nc1ncccn1`, for which the T/C (dose: 5.3 mg/kg/injection, schedule: Q01DX009 (ip), vehicle: Klucel (hydroxypropylcellulose) (HPC)) is 95 % of control; the T/C (dose: 8.0 mg/kg/injection, schedule: Q01DX009 (ip), vehicle: Klucel (hydroxypropylcellulose) (HPC)) is 159 % of control; the T/C (dose: 12.0 mg/kg/injection, schedule: Q01DX009 (ip), vehicle: Klucel (hydroxypropylcellulose) (HPC)) is 150 % of control; the T/C (dose: 18.0 mg/kg/injection, schedule: Q01DX009 (ip), vehicle: Klucel (hydroxypropylcellulose) (HPC)) is 159 % of control.
In the case of `O=S(=O)(N1CCCCC1)n1nnc2cc3ccccc3cc21`, the T/C reads like this: (dose: 50.0 mg/kg/injection, schedule: Q01DX009 (ip), vehicle: acetone) 98 % of control; (dose: 100.0 mg/kg/injection, schedule: Q01DX009 (ip), vehicle: acetone) 97 % of control; (dose: 200.0 mg/kg/injection, schedule: Q01DX009 (ip), vehicle: acetone) 97 % of control.
